Data from PubChem BioAssay AID1996.
Values after ≈ are worked out from the molar mass of the structure shown.

Details: buffer; pH 7.4; 200.0 µM

| solubility kinetic | Compound |
| --- | --- |
| > 0.0472 mg/mL | CCOC(=O)CN1C(=O)c2ccccc2Sc2ncccc21 |
| 0.0058 mg/mL (≈ 14.3 µM) | O=C(Nc1ccc(Br)cc1)c1cc(-c2ccncc2)nc2ccccc12 |
| > 0.0465 mg/mL | Cc1ccc(-n2c(N)c(Br)c(=O)[nH]c2=O)cc1C |
| > 0.0405 mg/mL | O=C(c1c[nH]c2ccccc2c1=O)N1CCCCCC1 |
| > 0.0455 mg/mL | COc1cccc(CN2CCc3[nH]c(=S)[nH]c(=O)c3C2)c1 |
| 0.03 mg/mL (≈ 93.3 µM) | S=C(Nc1ccc(Oc2ccccc2)cc1)Nc1cccnc1 |
| > 0.0521 mg/mL | CCCN1C2CCCC1CC(NC(=S)Nc1ccc(OC)cc1)C2 (stereo not given) |
| 0.0229 mg/mL (≈ 69.3 µM) | CC1(CCBr)C(=O)N(c2ccccc2)c2ccccc21 (stereo not given) |
| 0.0156 mg/mL (≈ 71.8 µM) | COC(=O)c1oc(-c2ccccc2)nc1C |
| > 0.0532 mg/mL | CC(=O)NCCc1nc2cc(NC(=O)c3ccc(F)cc3)ccc2n1C |
| 0.0482 mg/mL (≈ 141 µM) | CC(C)N(Cc1nc(COc2ccccc2)no1)Cc1nccn1C |
| 0.0033 mg/mL (≈ 10.3 µM) | Cc1ccc(C(=O)Nc2cccc3[nH]c(C(F)(F)F)nc23)cc1 |
| > 0.0568 mg/mL | COc1ccc(NC(=O)COC(=O)CNC(=O)C2CCCCC2)cc1OC |
| 0.0044 mg/mL (≈ 12.4 µM) | Cn1c(C(=O)N2CCN(c3ccccc3)CC2)cc2cc(Cl)ccc21 |
| 0.0085 mg/mL (≈ 24.9 µM) | CCOC(=O)CC(NC(=O)c1ccc(C)cc1)c1ccc(OC)cc1 (stereo not given) |
| > 0.0451 mg/mL | Cc1nn(CC(=O)N2CCN(C)CC2)c(=O)c2ccccc12 |
| < 0.0007 mg/mL | COc1cc(C(=S)N2CCCC2)ccc1OCc1ccc(C)cc1 |
| 0.0408 mg/mL (≈ 134 µM) | COc1ccc(S(=O)(=O)NCCCc2ccccc2)cc1 |
| 0.0225 mg/mL (≈ 81.3 µM) | Clc1ccc(N2CCN(Cc3ccco3)CC2)cc1 |
| > 0.048 mg/mL | O=C1CCCC(=O)C1C1c2ccccc2CCN1C(=O)CCl (stereo not given) |

| solubility kinetic | Compound |
| --- | --- |
| > 0.0426 mg/mL | CC(=O)c1cccc(NS(=O)(=O)N2CCOCC2)c1 |
| 0.0021 mg/mL (≈ 7.41 µM) | COc1ccc(OC)c(N/C=C/C(=O)c2ccccc2)c1 |
| 0.0486 mg/mL (≈ 150 µM) | COc1ccc(S(=O)(=O)N2CCN(C(=O)C3CC3)CC2)cc1 |
| 0.0011 mg/mL (≈ 3.17 µM) | COc1ccccc1/C=C/C(=O)OCC(=O)Nc1ccc(Cl)cn1 |
| > 0.0467 mg/mL | Br.CCc1ccc(C2=CSC3=NCCN23)cc1 |
| < 0.0006 mg/mL | Cc1cccc(NC(=O)c2cc3ccccc3oc2=O)c1 |
| > 0.0457 mg/mL | O=C1CCC(=O)N1CCSC(=S)N1CCSCC1 |
| 0.0457 mg/mL (≈ 133 µM) | CC(C)CC1NC(=O)N(CC(=O)NC2CCCc3ccccc32)C1=O (stereo not given) |
| 0.0255 mg/mL (≈ 69.6 µM) | CCCN(CC(=O)Nc1ccccc1OC)C(=O)c1cc2ccccc2o1 |
| > 0.0451 mg/mL | N=C1C(c2ccccc2)=C(O)CN1c1cccc2ccccc12 |
| 0.0424 mg/mL (≈ 144 µM) | COc1ccc(NC(=S)N2CCCCCC2)cc1OC |
| > 0.0458 mg/mL | COc1ccc(NC(=O)COC(=O)CC2CCCCC2)cc1 |
| 0.0025 mg/mL (≈ 6.86 µM) | COc1ccc(NC(=O)c2cc(S(=O)(=O)N3CCCC3)oc2C)cc1 |
| 0.0147 mg/mL (≈ 46.5 µM) | O=C(CC(c1ccc(F)cc1)c1ccco1)Nc1nccs1 (stereo not given) |
| > 0.0494 mg/mL | COc1ccc(/C=N/NC(=O)c2cccnc2)c(C(=O)O)c1OC |
| > 0.066 mg/mL | O=C(NCC1CCCO1)c1ccccc1NS(=O)(=O)c1cc([N+](=O)[O-])ccc1Cl (stereo not given) |
| > 0.046 mg/mL | N#CCCN(Cc1ccccc1)S(=O)(=O)c1cccs1 |
| > 0.0491 mg/mL | Cc1ccccc1-n1ccnc1SCC(=O)NCc1ccco1 |
| 0.001 mg/mL (≈ 2.92 µM) | O=c1ccc2cc(S(=O)(=O)NCCCc3ccccc3)ccc2[nH]1 |
| 0.001 mg/mL (≈ 3.23 µM) | c1ccc(CN2CCN(c3nc4ccccc4s3)CC2)cc1 |

| solubility kinetic | Compound |
| --- | --- |
| 0.0019 mg/mL (≈ 4.63 µM) | COc1cc(OC)cc(C(=O)N[C@H](C(=O)NC2CCCc3ccccc32)C(C)C)c1 (stereo not given in full) |
| 0.0003 mg/mL (≈ 0.782 µM) | Cc1ccccc1C1NC(c2ccccc2C)C([N+](=O)[O-])C(C)(C)C1[N+](=O)[O-] (stereo not given) |
| > 0.0679 mg/mL | CN1CCC(N(C)C(=O)c2cc(S(=O)(=O)N3CCOCC3)ccc2Cl)CC1.Cl |
| > 0.0508 mg/mL | OCCC1CN(CCCc2ccccc2)CCN1Cc1ccccc1 (stereo not given) |
| > 0.0405 mg/mL | O=C1C2C3C=CC(CC3)C2C(=O)N1/N=C/c1ccco1 (stereo not given) |
| 0.0149 mg/mL (≈ 46.4 µM) | O=C(Nc1ccc(OC(F)(F)F)cc1)c1ccc2nc[nH]c2c1 |
| > 0.0432 mg/mL | O=C(COc1ccc(Br)cc1F)NC1CC1 |
| > 0.0443 mg/mL | O=C(CSc1ncccn1)Nc1cccc2ccccc12 |
| 0.0345 mg/mL (≈ 130 µM) | NC(=O)c1ccc(CN2CCc3ccccc3C2)cc1 |
| 0.0033 mg/mL (≈ 11.1 µM) | Cc1ccccc1N=C1NC(=O)/C(=C/c2cccn2C)S1 |
| 0.0058 mg/mL (≈ 19.1 µM) | CCC(C(=O)Nc1ccsc1C(=O)OC)c1ccccc1 (stereo not given) |
| > 0.0499 mg/mL | Nc1cc(N)nc(SCC(=O)NNC(=O)Cc2ccccc2)n1 |
| 0.0115 mg/mL (≈ 38.3 µM) | Cc1ccc(Cc2cnc(NC(=O)C3=NCCN3)s2)cc1 |
| 0.0502 mg/mL (≈ 149 µM) | CC1C(=O)N2CCCc3cc(NC(=O)COc4ccccc4)cc1c32 (stereo not given) |
| 0.005 mg/mL (≈ 30.6 µM) | Oc1ccc(F)c2cccnc12 |
| 0.0041 mg/mL (≈ 15.9 µM) | c1ccc(-c2csc(NC3CCCCC3)n2)cc1 |
| 0.0343 mg/mL (≈ 119 µM) | Cc1ccc(C(=O)NCCCNC(=O)c2ccco2)cn1 |
| 0.0096 mg/mL (≈ 30.2 µM) | CC(c1nccs1)N(C)c1nc2nonc2nc1NC1CC1 (stereo not given) |

| Compound | solubility kinetic |
| --- | --- |
| Cl.c1cncc(CNC2CCCCC2)c1 | > 0.034 mg/mL |
| Cc1cc(C(=O)O)c(C)n1C1CC1 | > 0.0269 mg/mL |
